Literature values, collected in patent US9315472B2, “1,3,5-triazinane-2,4,6-trione derivatives and uses thereof” (Massachusetts Institute of Technology, priority 2013, dated 2016).
Where two headings read alike, the source gives them in different places.

Key:
[1] = rat, in vivo, po
[2] = mouse, in vivo, po

In the case of `O=c1n(CC2CO2)c(=O)n(CC2CO2)c(=O)n1CC1CO1` (centres unmarked) [Compound 1], the tolerability [1] is listed as “tolerated” and the tolerability [2] is listed as “tolerated”.
